Paper PMC2646871 (Journal of Medicinal Chemistry, 2008)

The molecules below were run against recombinant HIV-1 integrase (Human immunodeficiency virus type 1 group M subtype B, UniProt P12497) (assay: High throughput electrochemiluminescent). Conditions: not given.
Format: biochemical
In the case of O=C(O)/C(O)=C/C(=O)c1cn(Cc2ccc(F)cc2)c2ccc(F)cc2c1=O [6b, 4-[6-Fluoro-1-(4-fluorophenyl)methyl-4(1H)-quinolinon-3-yl]-2-hydroxy-4-oxo-2-butenoic Acid], the IC50 is reported as 30 nM. With O=C(O)/C(O)=C/C(=O)c1cn(Cc2ccc(F)cc2)c2c(Cl)cccc2c1=O [6g, 4-[8-Chloro-1-(4-fluorophenyl)methyl-4(1H)-quinolinon-3-yl]-2-hydroxy-4-oxo-2-butenoic Acid] the IC50 was 23 nM. With CCOC(=O)/C(O)=C/C(=O)c1c[nH]c2cc(Cl)ccc2c1=O [7b, 4-(7-Chloro-4(1H)-quinolinon-3-yl)-2-hydroxy-4-oxo-2-butenoic Acid Ethyl Ester] the IC50 was > 111000 nM. O=C(O)/C(O)=C/C(=O)c1c[nH]c2ccc(Cl)cc2c1=O [8a, 4-(6-Chloro-4(1H)-quinolinon-3-yl)-2-hydroxy-4-oxo-2-butenoic Acid] was tested, and the IC50 was > 111000 nM.

Same assay, conditions: relative to 6f
In the case of O=C(O)/C(O)=C/C(=O)c1cn(Cc2ccc(F)cc2)c2cc(Cl)c(Cl)cc2c1=O [6h, 4-[6,7-Dichloro-1-(4-fluorophenyl)methyl-4(1H)-quinolinon-3-yl]-2-hydroxy-4-oxo-2-butenoic Acid], the “times less potent than parent compound 6f (ST, HTECL)” value is reported as “approximately 1.5”. For O=C(O)/C(O)=C/C(=O)c1cn(Cc2ccc(F)cc2)c2cc(N3CCCC3)ccc2c1=O [6i, 4-[1-(4-Fluorophenyl)methyl-7-(pyrrolidin-1-yl)-4(1H)-quinolinon-3-yl]-2-hydroxy-4-oxo-2-butenoic Acid], the “times less potent than parent compound 6f (ST, HTECL)” value was “approximately 1.5”.
